In patent US20230210795A1, “3-HYDROXYBUTYRIC-ACID-CONTAINING OIL AND FAT COMPOSITION” (OSAKA GAS CO., LTD., priority 2020, published 2023):

Test: Deliquescence test: 1 g of composition left uncovered in a petri dish at 25° C. for 1 week, appearance and weight change evaluated
Format: physicochemical
Parameters: key: High fluidity and silky smoothness.; Δ: Slightly moist but highly fluid powder.; x: Agglomeration or deliquescence occurred
Conditions: for Appearance after 1 week / Appearance after 1 day: left uncovered at 25° C.
Experimental: R-3HB crystals or R-3HB salts (3HB-Na: sodium salt, 3HB-K: potassium salt) and oil and fat particles were weighed in the proportions shown in Table 2 below. Each mixture thereof was milled for 3 seconds five times in a mill mixer (IJM-M800-W, produced by Iris Ohyama Inc.). 1 g of each of the 3HB-containing compositions obtained in the Examples and Comparative Examples was weighed in petri dishes and left uncovered in a room adjusted to 25° C. for 1 week. The appearance and weight change of each composition was then evaluated. As comparative examples, combinations of commonly used silicon dioxide or calcium silicate and fat and/or oil were evaluated. […] The evaluation was made according to the following criteria.
o: High fluidity and silky smoothness. Δ: Slightly moist but highly fluid powder. x: Agglomeration or deliquescence occurred.

Row | Appearance immediately after milling | Appearance after 1 week | Appearance after 1 day | Compound
1 | Δ | x (Partial | x (Partial | CC(O)CC(=O)O (stereo not drawn) [Comp. Ex. 1, 3-Hydroxybutyric acid]
2 | Δ | x | x | CC(O)CC(=O)[O-].[K+] (stereo not drawn) [Comp. Ex. 2]
3 | ∘ | x | x | CC(O)CC(=O)[O-].[Na+] (stereo not drawn) [Comp. Ex. 3]
